# Assay results taken from US20170368054A1, “Treatment of Glaucoma Using Laquinimod” (Teva Pharmaceutical Industries, Ltd., priority 2013, published 2017).
# Several values for one entry are separate records, joined by “and”; a condition that tells them apart may be missing. Identical values can stand only once. Entries after “also recorded” stand apart in the source; their conditions may differ.
# How the values were obtained:
# [1] = tested on: retinal ganglion cells (RGC); assay: Fluoro-Gold labeled RGC survival in rat hypertonic saline injection glaucoma model; assay type: in vivo, Brown Norway rats (Rattus norvegicus); details: for Mean % RGC Loss (100-(100 x OHT/Non-OHT Mean RGC Counts per Retina)): OHT vs non-OHT retina, 5 weeks after 2nd HSI, vehicle 34.8
# From the text: The purpose of this study was to assess the efficacy of laquinimod in protecting against chronic ocular hypertension (OHT) and RGC degeneration in a rat model of glaucoma, created by injecting hypertonic saline into the episcleral veins in one eye of the Brown Norway rat. In this model, RGC degeneration occurs in response to increased IOP and OHT similar to that in human patients with glaucoma. The rat model of chronic ocular hypertension (OHT)/glaucoma was created in the left eye of each animal via two hypertonic saline injections (HSI) each one week apart. The un-injected right eye served as the control. Throughout the study, the vehicle control and the test articles were prepared weekly. Rats were dosed once daily for oral administration (Group 5) and twice daily for topical administration groups (Groups 1-4), starting on the day of the first HSI until euthanasia. Detailed ocular examinations were performed one week after the 2nd HSI and on the day of euthanasia. […] Post-dose IOP was measured weekly for 5 weeks starting one week after the 2nd HSI until euthanasia. Animals were euthanized 5 weeks after the 2nd HSI. The retinas were flat-mounted, slide IDs were masked and 8 regions per retina were imaged using a confocal microscope. RGC at these regions were counted using the Image J software. After the optic nerves were extracted, they were plastic-embedded, sectioned and stained with Toluidine Blue at Schepens Eye Research Institute, Boston, Mass.. The injury in the optic nerves was evaluated and graded by microscopic examination in a masked fashion. Chronic ocular hypertension (OHT) was created through two hypertonic saline injections (HSI) which were performed one week apart in the left eye. For each HSI, after the rats were anesthetized with a suitable anesthetic, a suture thread was passed through the left eyelid to fix it open. A local anesthetic (e.g., 0.5% Proparacaine HCl Ophthalmic Solution) was applied on the surgery eye topically. The conjunctiva was incised with Vannas scissors to expose an episcleral vein. An occluder ring with a groove was fitted around the left eye to provide unobstructed passage for the selected episcleral vein while obstructing the other episcleral veins. Using a pulled-glass needle, 50-250 μL of 1.8 M hypertonic saline solution was injected into the exposed episcleral vein to scar the aqueous humor outflow pathway in an attempt to elevate IOP. The ring was removed shortly after the injection. The un-operated right eye served as the control. Ophthalmic ointment was applied to both eyes to prevent corneal damage. For each HSI procedure, buprenorphine was administered subcutaneously for approximately 24 hours to manage post-operative pains as appropriate. Clinical observations was performed at least once daily as described in Table 6. Approximately one week prior to euthanasia, RGC was labeled with the retrograde tracer FG. First, animals were sedated with appropriate anesthesia. […] Rats received subcutaneous injections of buprenorphine for approximately 48 hours to manage post-surgery pain as appropriate. The eyes were fixed in 4% paraformaldehyde (PFA) fixative at 4±2° C. for at least 24 hours. Retinas were dissected and flat whole-mounted for confocal visualization and imaging. The actual identification of the retinal flat-mounts was masked prior to confocal imaging. Eight regions per retina were imaged using a confocal microscope and the RGC in each region were counted as follows: Retinal images were evaluated by confocal fluorescence microscopic examination. A three-dimensional view of the x-axis, y-axis, and z-axis were designed and processed using a specific system of image analysis software (Leica Confocal Software) to obtain an image of the viable RGCs labeled with FG. Two areas which were approximately 1.5 mm and 2.75 mm away from the center of the ON head were selected in each retinal quadrant (8 regions per retina) and serial images of the retinal ganglion cell layer were taken by the Confocal Microscope. […]
# Brown Norway rats = details: rat, in vivo
# Method: Prior to any experimental procedure, clinical observations were performed daily, body weights were obtained, intraocular pressure (IOP) was measured and detailed ocular examinations were performed on both eyes.
# Clinical observations were performed daily according to Table 6 below:
# Animals were weighed weekly prior to initiation of dosing. The first day the rats are weighed was designated as Study Day 1, and the beginning of Study Week 1.
# Animals selected for the study were examined prior to the initial administration of the test or the control articles to ensure that both eyes were free of abnormality, damage, and disease. Both eyes were examined, scored and recorded prior to the initial dose administration using a hand held slit-lamp and a direct ophthalmoscope or the surgical microscope according to the Classification System for Grading Ocular Lesions as described in Table 7, and the Ocular Posterior Segment Scoring Scale of Table 8. Posterior segment examination was performed after topical application of Tropicamide in the conscious state, or after the rats are anesthetized with isoflorane inhalation. Only rats showing no signs of eye irritation, ocular defects, or preexisting corneal injury were used in the study. […]
# Both eyes were examined and scored at one week after the second HSI and on the day of euthanasia, for a total of two times. […]
# glaucoma human patients = assay: Example 2: efficacy of laquinimod for treating patients afflicted with glaucoma; assay type: in vivo
# Method: Example 2: Assessment of Efficacy of laquinimod for Treating Patients Afflicted with Glaucoma Periodic (e.g., daily or twice daily) administration of laquinimod (oral or topical) is effective in treating glaucoma human patients. Periodic (e.g., daily or twice daily) administration of laquinimod (oral or topical) is effective to reduce a glaucoma-associated symptom in the subject. A laquinimod composition as described herein is administered systematically or locally to the eye of a subject suffering from glaucoma. The administration of the composition is effective to treat the subject suffering from glaucoma. The administration of the composition is also effective to reduce a glaucoma-associated symptom of glaucoma in the subject.
# [2] = human subject with glaucoma, systemic or local administration to the eye
structure (smiles),measurement,setting,value
CCN(C(=O)c1c(O)c2c(Cl)cccc2n(C)c1=O)c1ccccc1 [Laquinimod],"FG-Labeled RGC counts per mm2, OHT vs Non-OHT retinas, two-tailed paired-t test","[1]; Group 1, 1% Laquinimod topical, P=0.189",no statistically significant difference
same,Mean % RGC Loss (100-(100 x OHT/Non-OHT Mean RGC Counts per Retina)),"[1]; Group 1, topical 1% laquinimod twice daily",17.6±33.8% and 17.6%
same,"FG-Labeled RGC counts per mm2, OHT vs Non-OHT retinas, two-tailed paired-t test","[1]; Group 3, 4% Laquinimod topical, P=0.071",statistically marginally different
same,Mean % RGC Loss (100-(100 x OHT/Non-OHT Mean RGC Counts per Retina)),"[1]; Group 3, topical 4% laquinimod twice daily",26.8±36.4% and 26.8%
same,"FG-Labeled RGC counts per mm2, OHT vs Non-OHT retinas, two-tailed paired-t test","[1]; Group 4, 0.25% Laquinimod topical, P=0.033",fewer RGCs in the OHT eye
same,Mean % RGC Loss (100-(100 x OHT/Non-OHT Mean RGC Counts per Retina)),"[1]; Group 4, topical 0.25% laquinimod twice daily",21.6±21.7% and 21.6%
same,"FG-Labeled RGC counts per mm2, OHT vs Non-OHT retinas, two-tailed paired-t test","[1]; Group 5, 0.1% Laquinimod oral, P=0.075",statistically marginally different
same,Mean % RGC Loss (100-(100 x OHT/Non-OHT Mean RGC Counts per Retina)),"[1]; Group 5, oral 0.1% laquinimod once daily (1 mL)",22.9±33.1% and 22.9%
same,"RGC counts in OHT and Non-OHT eyes versus groups, Two-Way ANOVA eye versus group interaction","[1]; all groups (0.25%, 1%, 4% topical, 0.1% oral, vehicle), P=0.919",groups did not differ
same,Neuroprotection for the RGC (conclusion from RGC counts),"[1]; daily topical application of 1% Laquinimod, Group 1",may be neuroprotective; also recorded: trend towards neuroprotection
same,"Weight gained between day of dosing and day of euthanasia, groups compared",Brown Norway rats,did not differ
same,Treating glaucoma / reducing a glaucoma-associated symptom,"glaucoma human patients; human patients, periodic (e.g. daily or twice daily) oral or topical administration",effective
same,"Reduction of RGC damage and/or RGC loss, improvement of RGC viability",glaucoma human patients; [2],effective to reduce RGC damage and/or RGC loss
same,Reduction of intraocular pressure,glaucoma human patients; [2],effective to reduce intraocular pressure
